Data taken from PubChem BioAssay (NCI).
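These data come from cells grown in 96-well plates and exposed to compound for 48 hours at five concentrations. At the GI50, growth is halved. TGI: total growth inhibition.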

How the values were obtained:
Assay in all cases: inhibition of tumour cell growth, NCI panel, 48 h
[1] = test system: SK-MEL-5 melanoma
[2] = test system: CAKI-1 renal
[3] = test system: UO-31 renal
[4] = test system: DU-145 prostate
[5] = test system: UACC-257 melanoma
[6] = test system: T-47D breast
[7] = test system: SNB-75 CNS
[8] = test system: SK-MEL-28 melanoma
[9] = test system: HOP-62 NSCLC
[10] = test system: COLO 205 colon
[11] = test system: TK-10 renal
[12] = test system: SK-OV-3 ovarian
[13] = test system: MDA-MB-435
[14] = test system: HOP-92 NSCLC
[15] = test system: MDA-MB-231 breast
[16] = test system: OVCAR-8 ovarian
[17] = test system: CCRF-CEM leukemia
[18] = test system: SW-620 colon
[19] = test system: 786-0 renal
[20] = test system: U251 CNS
[21] = test system: MALME-3M melanoma
[22] = test system: IGROV1 ovarian
[23] = test system: HT29 colon
[24] = test system: UACC-62 melanoma
[25] = test system: OVCAR-5 ovarian
[26] = test system: HS 578T breast
[27] = test system: NCI-H522 lung
[28] = test system: SF-539 CNS
[29] = test system: HL-60(TB) leukemia
[30] = test system: MCF7 breast
[31] = test system: LOX IMVI melanoma
[32] = test system: SK-MEL-2 melanoma
[33] = test system: RXF 393 renal
[34] = test system: OVCAR-4 ovarian
[35] = test system: PC-3 prostate
[36] = test system: SR leukemia
[37] = test system: RPMI-8226 leukemia
[38] = test system: SN12C renal
[39] = test system: HCT-116 colon
[40] = test system: NCI/ADR-RES ovarian
[41] = test system: M14 melanoma
[42] = test system: A498 renal
[43] = test system: ACHN renal
[44] = test system: EKVX NSCLC
[45] = test system: A549 NSCLC
[46] = test system: SNB-19 CNS
[47] = test system: NCI-H23 lung
[48] = test system: SF-295 CNS
[49] = test system: HCC-2998 colon
[50] = test system: K-562 leukemia
[51] = test system: KM12 colon
[52] = test system: NCI-H226 lung
[53] = test system: SF-268 CNS
[54] = test system: BT-549 breast
[55] = test system: MOLT-4 leukemia
[56] = test system: HCT-15 colon
[57] = test system: OVCAR-3 ovarian
[58] = test system: NCI-H460 lung

**Q.** Which results are given for `O=C(NCCCNC(=O)OCc1ccc2c(Br)cc(Br)c(O)c2n1)OCc1ccc2c(Br)cc(Br)c(O)c2n1`?
**A.** GI50 [1]: > 100 µM; TGI [1]: > 100 µM; GI50 [2]: > 100 µM; TGI [2]: > 100 µM; GI50 [3]: > 100 µM; TGI [3]: > 100 µM; GI50 [4]: > 100 µM; TGI [4]: > 100 µM; GI50 [5]: > 100 µM; TGI [5]: > 100 µM; GI50 [6]: > 100 µM; TGI [6]: > 100 µM; GI50 [7]: > 100 µM; TGI [7]: > 100 µM; GI50 [8]: > 100 µM; TGI [8]: > 100 µM; GI50 [9]: > 100 µM; TGI [9]: > 100 µM; GI50 [10]: > 100 µM; TGI [10]: > 100 µM; GI50 [11]: > 100 µM; TGI [11]: > 100 µM; GI50 [12]: > 100 µM; TGI [12]: > 100 µM; GI50 [13]: > 100 µM; TGI [13]: > 100 µM; GI50 [14]: > 100 µM; TGI [14]: > 100 µM; GI50 [15]: > 100 µM; TGI [15]: > 100 µM; GI50 [16]: > 100 µM; TGI [16]: > 100 µM; GI50 [17]: > 100 µM; TGI [17]: > 100 µM; GI50 [18]: > 100 µM; TGI [18]: > 100 µM; GI50 [19]: > 100 µM; TGI [19]: > 100 µM; GI50 [20]: > 100 µM; TGI [20]: > 100 µM; GI50 [21]: > 100 µM; TGI [21]: > 100 µM; GI50 [22]: > 100 µM; TGI [22]: > 100 µM; GI50 [23]: > 100 µM; TGI [23]: > 100 µM; GI50 [24]: > 100 µM; TGI [24]: > 100 µM; GI50 [25]: > 100 µM; TGI [25]: > 100 µM; GI50 [26]: > 100 µM; TGI [26]: > 100 µM; GI50 [27]: > 100 µM; TGI [27]: > 100 µM; GI50 [28]: > 100 µM; TGI [28]: > 100 µM; GI50 [29]: > 100 µM; TGI [29]: > 100 µM; GI50 [30]: > 100 µM; TGI [30]: > 100 µM; GI50 [31]: > 100 µM; TGI [31]: > 100 µM; GI50 [32]: > 100 µM; TGI [32]: > 100 µM; GI50 [33]: > 100 µM; TGI [33]: > 100 µM; GI50 [34]: > 100 µM; TGI [34]: > 100 µM; GI50 [35]: > 100 µM; TGI [35]: > 100 µM; GI50 [36]: > 100 µM; TGI [36]: > 100 µM; GI50 [37]: > 100 µM; TGI [37]: > 100 µM; GI50 [38]: > 100 µM; TGI [38]: > 100 µM; GI50 [39]: > 100 µM; TGI [39]: > 100 µM; GI50 [40]: > 100 µM; TGI [40]: > 100 µM; GI50 [41]: > 100 µM; TGI [41]: > 100 µM; GI50 [42]: > 100 µM; TGI [42]: > 100 µM; GI50 [43]: > 100 µM; TGI [43]: > 100 µM; GI50 [44]: > 100 µM; TGI [44]: > 100 µM; GI50 [45]: > 100 µM; TGI [45]: > 100 µM; GI50 [46]: > 100 µM; TGI [46]: > 100 µM; GI50 [47]: > 100 µM; TGI [47]: > 100 µM; GI50 [48]: > 100 µM; TGI [48]: > 100 µM; GI50 [49]: > 100 µM; TGI [49]: > 100 µM; GI50 [50]: > 100 µM; TGI [50]: > 100 µM; GI50 [51]: > 100 µM; TGI [51]: > 100 µM; GI50 [52]: > 100 µM; TGI [52]: > 100 µM; GI50 [53]: > 100 µM; TGI [53]: > 100 µM; GI50 [54]: > 100 µM; TGI [54]: > 100 µM; GI50 [55]: > 100 µM; TGI [55]: > 100 µM; GI50 [56]: > 100 µM; TGI [56]: > 100 µM; GI50 [57]: > 100 µM; TGI [57]: > 100 µM; GI50 [58]: > 100 µM; TGI [58]: > 100 µM
